ChEMBL document CHEMBL1268917, “Synthesis and biological evaluation of radio-iodinated benzimidazoles as SPECT imaging agents for NR2B subtype of NMDA receptor” (Bioorg Med Chem, 2010)

Experiments:
[1] = target: Glutamate receptor ionotropic, NMDA 2B (Rattus norvegicus, UniProt Q00960); test: Displacement of [3H]ifenprodil from NR2B receptor in rat cortical synaptic membranes; type: cell membranes, Membrane
[2] = Octanol-buffer partition coefficient, log D of the compound at pH 7.4; type: physicochemical

Sequence of Glutamate receptor ionotropic, NMDA 2B (Q00960 whole entry): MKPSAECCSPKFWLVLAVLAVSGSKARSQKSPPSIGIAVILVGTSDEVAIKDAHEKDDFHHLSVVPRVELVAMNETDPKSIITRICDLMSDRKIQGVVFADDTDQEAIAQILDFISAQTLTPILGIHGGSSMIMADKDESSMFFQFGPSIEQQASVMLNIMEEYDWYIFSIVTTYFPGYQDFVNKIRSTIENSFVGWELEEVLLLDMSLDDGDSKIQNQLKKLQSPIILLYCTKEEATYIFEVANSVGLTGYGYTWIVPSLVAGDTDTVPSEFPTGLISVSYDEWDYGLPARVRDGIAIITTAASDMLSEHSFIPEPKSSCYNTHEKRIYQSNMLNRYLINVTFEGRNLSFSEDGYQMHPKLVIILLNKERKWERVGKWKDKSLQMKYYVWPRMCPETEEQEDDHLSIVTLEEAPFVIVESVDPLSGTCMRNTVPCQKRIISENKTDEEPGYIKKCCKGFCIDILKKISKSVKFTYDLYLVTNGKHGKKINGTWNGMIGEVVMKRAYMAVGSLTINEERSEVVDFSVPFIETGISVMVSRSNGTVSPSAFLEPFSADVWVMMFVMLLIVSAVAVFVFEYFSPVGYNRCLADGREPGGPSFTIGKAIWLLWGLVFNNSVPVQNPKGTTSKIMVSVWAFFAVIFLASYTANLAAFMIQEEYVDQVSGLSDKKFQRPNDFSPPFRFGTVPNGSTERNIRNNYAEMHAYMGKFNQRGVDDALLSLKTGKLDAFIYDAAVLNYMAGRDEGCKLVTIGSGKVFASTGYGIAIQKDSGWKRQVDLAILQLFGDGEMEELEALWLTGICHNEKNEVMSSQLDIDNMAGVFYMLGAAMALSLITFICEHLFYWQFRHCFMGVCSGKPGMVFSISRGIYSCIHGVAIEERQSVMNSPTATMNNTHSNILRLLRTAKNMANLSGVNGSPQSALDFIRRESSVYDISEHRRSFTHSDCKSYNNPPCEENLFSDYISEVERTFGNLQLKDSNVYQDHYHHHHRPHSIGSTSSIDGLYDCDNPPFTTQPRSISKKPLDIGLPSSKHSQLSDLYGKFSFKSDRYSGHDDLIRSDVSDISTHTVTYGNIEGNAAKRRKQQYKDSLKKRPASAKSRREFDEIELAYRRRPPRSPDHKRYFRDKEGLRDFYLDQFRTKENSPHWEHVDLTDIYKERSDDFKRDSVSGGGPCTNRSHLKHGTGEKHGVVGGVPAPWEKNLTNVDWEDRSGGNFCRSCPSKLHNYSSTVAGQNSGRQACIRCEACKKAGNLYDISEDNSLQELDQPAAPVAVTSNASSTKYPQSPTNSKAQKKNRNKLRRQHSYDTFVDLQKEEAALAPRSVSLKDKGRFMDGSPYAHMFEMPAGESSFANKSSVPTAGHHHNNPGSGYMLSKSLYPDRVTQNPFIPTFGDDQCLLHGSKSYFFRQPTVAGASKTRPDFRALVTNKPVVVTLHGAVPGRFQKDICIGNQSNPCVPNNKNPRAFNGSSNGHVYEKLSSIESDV

Ki [1]: 0.0325 µM
logD [2]: 3.74
Structure (SMILES): Oc1ccc2nc(CN3CCC(Oc4ccc(I)cc4)CC3)[nH]c2c1
